Here are results for one molecule from article doi:10.1101/2025.03.14.643404, “A Bivalent Molecular Glue Linking Lysine Acetyltransferases to Oncogene-induced Cell Death” (bioRxiv, 2025).

In this test the test system is H3K27ac. As to the kind of experiment: ChIP-seq for H3K27ac in SUDHL5. The test is classed as cell-based, human. Conditions: SUDHL5, 1 nM, 1 hour. The method, then: 25–30 million cells were treated with TCIP3 or DMSO for indicated timepoints. Cells were washed in PBS containing TCIP3 or DMSO and crosslinked for 11 min in CiA Fix Buffer (50 mM HEPES pH 8.0, 1 mM EDTA, 0.5 mM EGTA, 100 mM NaCl) with addition of formaldehyde to a final concentration of 1%. The crosslinking reaction was quenched by glycine added at 0.125 M final concentration. Crosslinked cells were centrifuged at 1,000 × g for 5 min. […] Library size distributions were confirmed using an Agilent Bioanalyzer and High Sensitivity DNA reagents (Agilent 5067) and concentrations determined by qPCR. […]
The data quality was checked using fastq (https://www.bioinformatics.babraham.ac.uk/projects/fastqc/). The raw reads were trimmed from adapters with cutadapt (parameters: -a […] -A […]) and raw reads were aligned to hg38 human genome assembly using bowtie2 (parameters: --local --maxins 1000). Low quality reads, duplicated reads and reads with multiple alignments were removed using samtools[120] and Picard (https://broadinstitute.github.io/picard/). macs2[121] was used to map position of peaks with FDR cutoff of 0.05. […] All browser tracks and metaprofiles shown were calculated with sequence-depth-normalized, replicate-merged (bigWigMerge[125]) and, for ChIP-seq, input-subtracted data (deeptools bigWigCompare). […]

Molecules are shown by their SMILES.

Consider `CNC(=O)COc1cc2cc(Nc3nc(N4CCC(C(=O)N5CCN(CCC(=O)N6CCC(n7nc(N8CCCc9cc(-c%10cnn(C)c%10)c(C(F)F)cc98)c8c7CCN(C(=O)NC)C8)CC6)CC5)CC4)ncc3Cl)cc(OC)c2n(C)c1=O` [TCIP3], for which the H3K27ac peaks gained amounted to 533 and the H3K27ac peaks lost is listed as 5,216.
